The text below walks through data of patent US20120264159A1, “SCREENING SYSTEM FOR MODULATORS OF HER2 MEDIATED TRANSCRIPTION AND HER2 MODULATORS IDENTIFED THEREBY” (BUCK INSTITUTE FOR AGE RESEARCH, priority 2001, published 2012).

Values after ≈ are worked out from the molar mass of the structure shown. Starred links: 1 amine or outer side, 2 acyl side, 3 side chain; linkers in the order of their positions; H or OH if unused. Positions of bridges follow the written chain, without caps; N, C: chain ends. Non-standard residues stand in square brackets, D forms with d. Residues, ends and D or L forms follow the SMILES beside them. Chains are numbered I, II in the order given. Actinocin(9to1) = Cc1c2oc3c(C)ccc(C(=O)[*:1])c3nc-2c(C(=O)[*:2])c(N)c1=O; NMeV = CN[C@H](C(=O)O)C(C)C; Sar = CNCC(=O)O

The subject of one series is ErbB2 promoter. Put plainly: Genomically integrated ErbB2 promoter-luciferase reporter screen in MCF/R06pGL-9 cells. The class given is cell-based, human. The conditions noted are these: 24 h treatment. How it is done: (§1) Reporter activity was assayed as follows: From T-150 or T-75 culture flasks, about […] cells/well were plated into a 96 well plate format for high-throughput screening. 24 hours post plating a test agent e.g. a drug from a combinatorial library, was added to the wells at various concentrations. Certain wells were used as controls (e.g. PBS or DMSO vehicle only). Replicate wells ([…] per drug concentration) were run. 24 hours after addition of the test agent the cells were lysed, a luciferase reagent was added and activity in each well was read using a high-throughput screening plate reader (labsystems Fluoroskan). Parallel plates were run for cell viability using an MTT assay (Sigma).
A luciferase reporter plasmid (designated RO6pGL-luc) was constructed by inserting the ˜500 bp SmaI-SmaI fragment of the human ErbB2 proximal promoter (12) into the pGL3Basic plasmid driving a luciferase reporter gene, as has been described (10). R06pGL-luc and a plasmid expressing neomycin phosphotransferase were co-transfected into the MCF-7 cells (ATCC) using Effectene (Qiagen). Cells were selected for stable expression of luciferase and neomycin (G418)-resistance. […] The reaction was quantified by absorbance at 570 nm measured with a microplate reader (Molecular Devices) and the mean (±SD) optical density recorded after normalization by the vehicle treated controls. […]
For orientation: In a reporter assay the amount or activity of a reporter protein is the signal.

A further series concerns ErbB2 transcript. In words: Northern blot of ErbB2 transcript levels in ErbB2 overexpressing breast cancer cells. In kind it is cell-based, human. How it is done: The conserved and singular DNase I hypersensitivity sites found in the proximal ErbB2 and ESX promoters (12,15) were assayed as before (12). Briefly, following culture treatment of cells, nuclei isolated by mild detergent lysis in a buffer containing 10 mM Hepes pH 7.9, 1.5 mM MgCl2, 10 mM KCl, 0.4% NP-40, 10% glycerol and 1 mM DTT. Partial DNase I digestions were carried out by varying DNase I treatment times (0-15 minutes at 37( ) at a fixed DNase I concentrations (0.5-1.0 units per 10^6 nuclei). After purifying and restricting the DNA, it was electrophoresed through 0.7% agarose gels and blotted onto nylon membranes, UV-crosslinked and hybridized with randomly ^32P-labelled ErbB2 and ESX promoter probes, as similarly performed for routine Southern blotting. For Northern blotting, total (treated vs. control) cell RNA (10 μg/sample lane) was isolated using TRIzol (Invitrogen) according to manufacturer's specifications, electrophoresed into 1% agarose-formaldehyde gels and transferred onto membranes that were then hybridized with ^32P-labelled ErbB2 and ESX cDNA probes. For transcriptional run-off assays cell nuclei were first isolated from treated and control cells as described for the DNase I studies. Elongatation of initiated nascent RNA chains was performed at 37 (C for 30 minutes using ˜5×10^6 nuclei per reaction in a buffer containing 10 mM Tris pH7.5, 2.5 mM MgCl2, 150 mM KCl, 1 mM DTT, 10% glycerol, 0.5 mM ATP, GTP and CTP, and 100 μCi of [α-^32P]UTP (800 Ci/mmol). Nuclear RNA was purified by the addition of 100 units of RNase-free DNase I (Roche) per reaction for 2 minutes followed by TRIzol processing. Radiolabelled RNA was hybridized (˜4×10^6 cpm) at 68 (C in ExpressHyb (Clontech) for 24 hours to nylon filter membranes previously slotted with 0.5 μg per slot of unlabelled ErbB2 cDNA fragments (from either the transmembrane or C-terminal domains), ESX cDNA fragments, and empty plasmid control, as we have previously described (16). Filters were washed at 64 (C in 0.2 SSC and 0.5% SDS. For Western blotting, whole-cell extracts from control vs. treated cells were boiled in sample loading buffer (1% SDS, 20% glycerol, 100 mM DTT, 50 mM Tris, pH 6.8), gel lanes loaded for constant total protein (15 μg), electrophoresed into 9% sodium dodecyl sulfacte polyacrylamide (SDS-PAGE) gels, transferred onto membranes (Immobilon-P, Millipore), and the protein-bound membranes hybridized with a primary antibody followed by a horseradish peroxidase-conjugated secondary antibody (Sigma), and specific protein bands visualized by chemiluminescent substrate (Pierce), as previously described (10).

In a further series the test system is ESX transcript. In words: Northern blot of ESX transcript levels in SKBR3 cells. The class given is cell-based, human. The conditions noted are these: 5 hours Act D. How it is done: The conserved and singular DNase I hypersensitivity sites found in the proximal ErbB2 and ESX promoters (12,15) were assayed as before (12). Briefly, following culture treatment of cells, nuclei isolated by mild detergent lysis in a buffer containing 10 mM Hepes pH 7.9, 1.5 mM MgCl2, 10 mM KCl, 0.4% NP-40, 10% glycerol and 1 mM DTT. Partial DNase I digestions were carried out by varying DNase I treatment times (0-15 minutes at 37( ) at a fixed DNase I concentrations (0.5-1.0 units per 10^6 nuclei). After purifying and restricting the DNA, it was electrophoresed through 0.7% agarose gels and blotted onto nylon membranes, UV-crosslinked and hybridized with randomly ^32P-labelled ErbB2 and ESX promoter probes, as similarly performed for routine Southern blotting. For Northern blotting, total (treated vs. control) cell RNA (10 μg/sample lane) was isolated using TRIzol (Invitrogen) according to manufacturer's specifications, electrophoresed into 1% agarose-formaldehyde gels and transferred onto membranes that were then hybridized with ^32P-labelled ErbB2 and ESX cDNA probes. For transcriptional run-off assays cell nuclei were first isolated from treated and control cells as described for the DNase I studies. […]

For series [1], the system named is NCI panel of 60 human cancer cell lines. The conditions noted are these: free drug, cell lines not overexpressing ErbB2; cited from earlier work.
A further series has as its system BT-474 cells. In words: In vitro antitumor activity against ErbB2-amplified BT-474 cells. The class given is cell-based. The method, then: FIG. 9 illustrates validation of NSC-176328 antitumor selectivity. ErbB2-positive human cancer cells are 8.5-fold more sensitive to NSC-176328 than a panel of ErbB2-negative cancer cells. In vitro antitumor activity against ErbB2-amplified BT-474 cells of free and liposome- or immunoliposome-encapsulated Ellipticine (NSC-176328). 6-3-aminopropylellipticine (AE; NSC 176328) was administered to cell cultures as free drug or after being encapsulated into liposomes (L-AE) or immunoliposomes (ILS-AE); the former prevent escape and cell exposure to free AE, the latter specifically internalize into and release AE within ErbB2 overexpressing tumor cells.

Series [2] concerns RO6 HER2 promoter. In words: Basal promoter activity of MCF-7b stable RO6 populations. The conditions noted are these: 10 nM, 24 hours, serum-free media, clone and polyclonal populations. In kind it is cell-based, human. How it is done: (§2) Parental cell lines MCF-7, and MDA-453 were transfected with the construct Ro6pGL (FIG. 2) in conjunction with pcMneo construct using lipid-based transfection (Effectene) at a ratio of 20:1 reporter:selectable marker (see, FIG. 4). Monoclonal and polyclonal populations were selected in 0.5 mg/ml G418 over 2 to 4 weeks.
as §1

Series [3] deals with RO6 HER2 promoter. In words: Basal promoter activity of MDA-453 stable RO6 polyclonal populations. In kind it is cell-based, human. The conditions noted are these: 10 nM TPA in DMSO, 8 and 48 hr, presence of serum, compared with DMSO only. How it is done: as §2
Reporter activity was assayed as follows: From T-150 or T-75 culture flasks, about […] cells/well were plated into a 96 well plate format for high-throughput screening. 24 hours post plating a test agent e.g. a drug from a combinatorial library, was added to the wells at various concentrations. Certain wells were used as controls (e.g. PBS or DMSO vehicle only). Replicate wells ([…] per drug concentration) were run. […] Parallel plates were run for cell viability using an MTT assay (Sigma).

`CCCC(=O)[O-].[Na+]` [sodium butyrate]: the “ErbB2 promoter-reporter (luciferase) activity” value in the series with ErbB2 promoter is on record as “significantly represses”. For the same compound, in the series on ErbB2 transcript (3 mM × 24 hours (data not shown)), the ErbB2 transcript levels result is “Virtually complete elimination of ErbB2 transcript levels”.

For `Cc1c2oc3c(C)ccc(C(=O)N[C@@H]4C(=O)N[C@H](C(C)C)C(=O)N5CCC[C@H]5C(=O)N(C)CC(=O)N(C)[C@@H](C(C)C)C(=O)O[C@@H]4C)c3nc-2c(C(=O)N[C@@H]2C(=O)N[C@H](C(C)C)C(=O)N3CCC[C@H]3C(=O)N(C)CC(=O)N(C)[C@@H](C(C)C)C(=O)O[C@@H]2C)c(N)c1=O` [Act D, actinomycin D] (I: T[dV]P[Sar][NMeV] / II: T[dV]P[Sar][NMeV]; ester I:1-I:C, II:1-II:C; linker I:N-II:N via Actinocin(9to1)), in the series with ErbB2 transcript (SKBR3 cells, 5 hours treatment, TSA 0.05 or 0.40 μM, Act D 10 μg/ml), the “ErbB2 mRNA level / decay” value was “only a slight reduction in ErbB2 mRNA level”. In addition, in the series on ESX transcript, the “ESX mRNA level” value was “complete loss of the short-lived ESX mRNA”.

Regarding `C[C@@H]1C[C@@H]([C@H](O)CC2CC(=O)NC(=O)C2)C(=O)[C@@H](C)C1` [cycloheximide], the “effect on TSA induced ErbB2 transcript decay” value with ErbB2 transcript (BT-474 or MDA-453 cells (data not shown)) is recorded as “no ability to arrest TSA induced ErbB2 transcript decay”. Besides, in the series with ErbB2 transcript (SKBR3 cells, 50 μg/ml), the “ErbB2 transcript levels in control cells” value is given as “no effect on ErbB2 transcript levels in control cells” and the “effect on TSA induced accelerated ErbB2 mRNA degradation” value is “completely inhibited the accelerated ErbB2 mRNA degradation induced by TSA”.

The LC50 is the concentration that kills 50% of the test population. Lower therefore signals greater toxicity. As to `Cc1c2cnccc2c(C)c2c1c1ccccc1n2CCCN` [AE, 6-3-aminopropylellipticine], the “average LC50” value in series [1] was 1700 µg/mL. Besides, in the series on BT-474 cells (BT-474 vs NCI panel of ErbB2-negative cancer cells), the “sensitivity of ErbB2-positive vs ErbB2-negative cancer cells” value amounted to 8.5 fold. Also, the LC50 in the series on BT-474 cells (free drug, ErbB2 overexpressing BT-474 cells) worked out at 200 µg/mL (≈ 659 µM).

For the compound `CCCCCCCCCCCCCC(=O)O[C@@H]1[C@@H](C)[C@@]2(O)[C@@H](C=C(CO)C[C@]3(O)C(=O)C(C)=C[C@@H]23)[C@@H]2C(C)(C)[C@]12OC(C)=O` [TPA], the basal promoter activity result is given as “decreased basal promoter activity” with RO6 HER2 promoter [2] and “no significant effect on basal promoter activity” with RO6 HER2 promoter [3].
